Experiment [1] can be described thus: Inhibition of soybean 5-LOX by spectrophotometry. Also noted: species or system Glycine max.
The target of a further experiment is Acetylcholinesterase (Homo sapiens, UniProt P22303). Briefly: Inhibition of AChE (unknown origin) using ACh chloride as substrate preincubated for 15 mins before substrate addition by Ellman method. A general note: DTNB colorimetry detects thiols as they appear.

The structures appear in SMILES notation.

Acetylcholinesterase, sequence (P22303 whole entry): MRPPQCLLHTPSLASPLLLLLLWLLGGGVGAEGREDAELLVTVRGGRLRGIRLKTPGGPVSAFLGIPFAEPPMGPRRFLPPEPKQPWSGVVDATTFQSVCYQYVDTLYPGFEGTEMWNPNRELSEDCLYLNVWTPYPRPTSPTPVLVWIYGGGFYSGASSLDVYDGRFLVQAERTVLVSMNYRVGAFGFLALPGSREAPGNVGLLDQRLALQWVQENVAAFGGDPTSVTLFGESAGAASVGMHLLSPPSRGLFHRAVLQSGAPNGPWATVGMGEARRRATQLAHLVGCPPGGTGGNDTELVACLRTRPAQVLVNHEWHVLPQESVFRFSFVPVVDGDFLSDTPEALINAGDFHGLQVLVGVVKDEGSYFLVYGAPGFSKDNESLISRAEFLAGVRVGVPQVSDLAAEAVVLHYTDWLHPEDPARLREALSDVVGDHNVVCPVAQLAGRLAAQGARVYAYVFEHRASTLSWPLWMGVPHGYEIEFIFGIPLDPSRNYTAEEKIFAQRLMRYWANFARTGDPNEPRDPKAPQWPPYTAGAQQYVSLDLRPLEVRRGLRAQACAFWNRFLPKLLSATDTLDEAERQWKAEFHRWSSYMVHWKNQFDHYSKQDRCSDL

As to `COC(=O)CC1=NO[C@@H]2CCCC[C@@H]2[C@H]1c1ccccc1`, the 50% inhibitory concentration (IC50) (commonly the concentration needed to halve the response being measured) in experiment [1] amounted to 16.1 µM; against Acetylcholinesterase it was 35.1 µM.
In the case of `COC(=O)C(CC1=NO[C@@H]2CCCC[C@@H]2[C@H]1c1ccc(OC)cc1)C(=O)OC`, the midpoint of inhibition in experiment [1], the IC50, lay at 33.8 µM.
Consider `COC(=O)C(CC1=C(c2ccc(OC)cc2)CC(C)(C)ON1C(C)=O)C(=O)OC`, for which the values for the IC50 (in experiment [1]; against Acetylcholinesterase) were 1.23 µM and 14.3 µM, respectively.
For the compound `COC(=O)C(CC1=NOC(C)(C)C[C@H]1c1ccc(OC)cc1)C(=O)OC`, the 50% inhibitory concentration (IC50) in experiment [1] came to 66.9 µM.
On to `CC1(C)C[C@@H](c2ccccc2)C(CN2C(=O)c3ccccc3C2=O)=NO1`, for which the 50% inhibitory concentration (IC50) in experiment [1] worked out at 30 µM; at Acetylcholinesterase it was 65.3 µM.
For `CC(=O)N1OC(C)(C)CC(c2ccccc2)=C1CN1C(=O)c2ccccc2C1=O`, the results for the IC50 (in experiment [1]; against Acetylcholinesterase) were 1.88 µM and 2.5 µM, respectively.
As to `COC(=O)C(CC1=C(c2ccccc2)CC(C)(C)ON1C(C)=O)C(=O)OC`, the values for the IC50 (in experiment [1]; on Acetylcholinesterase) were 6.32 µM and 12 µM, respectively.
Take `COC(=O)CC1=NO[C@@H]2[C@H]3CC[C@H](C3)[C@@H]2[C@H]1c1ccccc1`: the half-maximal inhibitory concentration (IC50) in experiment [1] worked out at 16.7 µM; against Acetylcholinesterase, 6.3 µM.
Consider `COC(=O)C(CC1=NO[C@@H]2[C@@H]3CC[C@@H](C3)[C@@H]2[C@H]1c1ccccc1)C(=O)OC`, for which the IC50 in experiment [1] is 21.1 µM.
In the case of `COC(=O)C(CC1=C(c2ccc(Cl)cc2)CC(C)(C)ON1C(C)=O)C(=O)OC`, inhibition against Acetylcholinesterase was half-maximal at 46.8 µM (IC50).
Consider `COC(=O)C(CC1=NO[C@@H]2CCCC2[C@H]1c1ccccc1)C(=O)OC` (single isomer, unassigned), for which the IC50 in experiment [1] worked out at 81.7 µM; on Acetylcholinesterase, 75.4 µM.
